Source: ChEMBL document CHEMBL1697781, “Assessment of the health effects of chemicals in humans: II. Construction of an adverse effects database for QSAR modeling” (Curr Drug Discov Technol, 2004)

Assays:
Conditions in all cases: human; call rule not given here
Hepatotoxicity [1] = assay: FDA HLAED, serum glutamic oxaloacetic transaminase (SGOT) increase
Hepatotoxicity [2] = assay: FDA HLAED, gamma-glutamyl transferase (GGT) increase
Hepatotoxicity [3] = assay: FDA HLAED, lactate dehydrogenase (LDH) increase
Hepatotoxicity [4] = assay: FDA HLAED, alkaline phosphatase increase
Hepatotoxicity [5] = assay: FDA HLAED, liver enzyme composite activity
Hepatotoxicity [6] = assay: FDA HLAED, serum glutamic pyruvic transaminase (SGPT) increase
Wherever GGT Increase - Index Value is given: reference of the scale not given here.
Wherever LDH Increase - Index Value is given: reference of the scale not given here.

SMILES | SGOT Increase - Activity Score (Hepatotoxicity [1]) | SGOT Increase - Index Value (Hepatotoxicity [1]) | SGOT Increase - Number of Reports (Hepatotoxicity [1]) | GGT Increase - Activity Score (Hepatotoxicity [2]) | GGT Increase - Index Value (Hepatotoxicity [2]) | GGT Increase - Number of Reports (Hepatotoxicity [2]) | LDH Increase - Activity Score (Hepatotoxicity [3]) | LDH Increase - Index Value (Hepatotoxicity [3]) | LDH Increase - Number of Reports (Hepatotoxicity [3]) | Alkaline Phosphatase Increase - Activity Score (Hepatotoxicity [4]) | Alkaline Phosphatase Increase - Index Value (Hepatotoxicity [4]) | Alkaline Phosphatase Increase - Number of Reports (Hepatotoxicity [4]) | Composite Activity - Active (Hepatotoxicity [5]) | Composite Activity - Marginal (Hepatotoxicity [5]) | Composite Activity - Score (Hepatotoxicity [5]) | SGPT Increase - Activity Score (Hepatotoxicity [6]) | SGPT Increase - Index Value (Hepatotoxicity [6]) | SGPT Increase - Number of Reports (Hepatotoxicity [6])
CC(C)/N=c1\cc2n(-c3ccc(Cl)cc3)c3ccccc3nc-2cc1Nc1ccc(Cl)cc1 [CLOFAZIMINE] | Active | 76.9 | < 4 | Active | 51.3 | < 4 | Inactive | 25.6 | < 4 | Active | 76.9 | < 4 | 4 | 0 | Active | Active | 102.6 | >= 4
CCOC(=O)[C@H](CCc1ccccc1)N[C@H]1CCc2ccccc2N(CC(=O)O)C1=O [BENAZEPRIL] | Inactive | 0 | < 4 | Inactive | 0.2 | < 4 | Inactive | 0.2 | < 4 | Inactive | 0.3 | < 4 | 0 | 0 | Inactive | Inactive | 0 | < 4
NCCCC[C@H](N[C@@H](CCc1ccccc1)C(=O)O)C(=O)N1CCC[C@H]1C(=O)O [LISINOPRIL ANHYDROUS] | Inactive | 1.5 | >= 4 | Inactive | 1 | >= 4 | Inactive | 1.2 | >= 4 | Inactive | 2 | >= 4 | 0 | 0 | Inactive | Inactive | 1.4 | >= 4
CCN1CCN(C(=O)N[C@@H](C(=O)N[C@@H]2C(=O)N3C(C(=O)O)=C(CSc4nnnn4C)CS[C@H]23)c2ccc(O)cc2)C(=O)C1=O [CEFOPERAZONE] | Inactive | 0.4 | >= 4 | Inactive | 0 | < 4 | Inactive | 0.1 | < 4 | Inactive | 0 | < 4 | 0 | 0 | Inactive | Inactive | 0.2 | < 4
